We go through 21 molecules from patent US12202835B2, “Substituted aromatic ring-linked dioxinoquinazolines and dioxinoquinolines as kinase inhibitors” (BEIJING SCITECH-MQ PHARMACEUTICALS LIMITED, priority 2018, dated 2025).

Usually IC50 stands for the concentration needed to halve the response being measured.

One experiment addresses c-MET kinase (Homo sapiens (Human), UniProt P08581). Kind of experiment: Assay of small molecular compounds for inhibiting the activity of c-MET kinase (LANCE TR-FRET). In kind it is biochemical. Conditions: read-out: CMET IC50. The gist of the method:
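Eleven final concentrations from 2500 nM down to 0.042 nM, in 4% DMSO, were tested against human c-MET (2× stock 2 nM), with compound and enzyme premixed for 5 min. The phosphorylation reaction used 4× stock of 400 nM ULight-JAK-1 peptide and 40 μM ATP for 60 min at room temperature, then stop and detection steps. TR-FRET percent inhibition against positive and negative controls gave the IC50.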
For orientation: TR-FRET usually uses a lanthanide donor and a delayed reading to cut background.

The target in another experiment is VEGFR-2 kinase (Homo sapiens (Human), UniProt P35968). The experiment in a line: Assay of small molecular compounds for inhibiting the activity of VEGFR-2 kinase (LANCE TR-FRET). In kind it is biochemical. Conditions: read-out: VEGFR2 IC50. The gist of the method:
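LANCE TR-FRET with human VEGFR-2 (2× stock 0.5 nM) preincubated 30 min with compound (final 2500 to 0.042 nM, 11-point 3-fold), then ULight-JAK-1 (Tyr1023) peptide/ATP added (4× stocks 200 nM/40 μM). Reaction 60 min room temperature, 4% DMSO; IC50 from inhibition-rate curve.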

Chain of VEGFR-2 kinase (P35968 20-1356): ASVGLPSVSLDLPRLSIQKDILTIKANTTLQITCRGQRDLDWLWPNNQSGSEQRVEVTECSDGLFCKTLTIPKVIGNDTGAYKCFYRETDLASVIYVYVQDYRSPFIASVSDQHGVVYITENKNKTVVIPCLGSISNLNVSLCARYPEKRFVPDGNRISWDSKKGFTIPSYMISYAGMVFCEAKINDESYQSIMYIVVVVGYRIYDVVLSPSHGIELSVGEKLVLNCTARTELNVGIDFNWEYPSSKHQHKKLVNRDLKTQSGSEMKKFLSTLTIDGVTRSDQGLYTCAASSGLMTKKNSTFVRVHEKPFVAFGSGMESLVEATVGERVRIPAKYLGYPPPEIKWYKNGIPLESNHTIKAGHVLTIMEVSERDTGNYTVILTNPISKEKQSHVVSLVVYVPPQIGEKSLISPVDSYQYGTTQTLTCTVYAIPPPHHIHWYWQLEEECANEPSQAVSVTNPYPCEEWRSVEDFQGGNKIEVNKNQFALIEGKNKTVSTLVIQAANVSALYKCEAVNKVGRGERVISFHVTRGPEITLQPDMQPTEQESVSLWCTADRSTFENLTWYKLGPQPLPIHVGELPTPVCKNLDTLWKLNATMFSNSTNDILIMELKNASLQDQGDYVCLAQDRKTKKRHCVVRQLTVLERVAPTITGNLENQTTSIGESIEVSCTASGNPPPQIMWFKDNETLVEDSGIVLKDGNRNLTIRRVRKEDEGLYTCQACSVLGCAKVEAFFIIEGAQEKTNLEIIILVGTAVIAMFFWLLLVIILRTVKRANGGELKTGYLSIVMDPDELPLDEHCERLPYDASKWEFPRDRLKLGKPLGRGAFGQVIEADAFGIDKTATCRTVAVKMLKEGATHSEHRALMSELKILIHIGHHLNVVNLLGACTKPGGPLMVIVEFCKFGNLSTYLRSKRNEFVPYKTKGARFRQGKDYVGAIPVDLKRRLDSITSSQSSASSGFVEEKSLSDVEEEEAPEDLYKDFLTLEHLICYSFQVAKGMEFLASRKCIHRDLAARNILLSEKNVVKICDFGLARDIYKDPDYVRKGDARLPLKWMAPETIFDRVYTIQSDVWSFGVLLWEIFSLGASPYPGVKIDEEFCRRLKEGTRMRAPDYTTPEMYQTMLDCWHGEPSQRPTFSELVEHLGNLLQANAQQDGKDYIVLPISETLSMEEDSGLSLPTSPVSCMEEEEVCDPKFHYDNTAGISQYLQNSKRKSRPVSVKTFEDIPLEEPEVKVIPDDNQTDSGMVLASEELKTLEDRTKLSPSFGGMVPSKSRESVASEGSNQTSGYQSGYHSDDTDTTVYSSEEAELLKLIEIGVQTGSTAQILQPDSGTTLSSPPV
Chain of c-MET kinase (P08581 25-1390): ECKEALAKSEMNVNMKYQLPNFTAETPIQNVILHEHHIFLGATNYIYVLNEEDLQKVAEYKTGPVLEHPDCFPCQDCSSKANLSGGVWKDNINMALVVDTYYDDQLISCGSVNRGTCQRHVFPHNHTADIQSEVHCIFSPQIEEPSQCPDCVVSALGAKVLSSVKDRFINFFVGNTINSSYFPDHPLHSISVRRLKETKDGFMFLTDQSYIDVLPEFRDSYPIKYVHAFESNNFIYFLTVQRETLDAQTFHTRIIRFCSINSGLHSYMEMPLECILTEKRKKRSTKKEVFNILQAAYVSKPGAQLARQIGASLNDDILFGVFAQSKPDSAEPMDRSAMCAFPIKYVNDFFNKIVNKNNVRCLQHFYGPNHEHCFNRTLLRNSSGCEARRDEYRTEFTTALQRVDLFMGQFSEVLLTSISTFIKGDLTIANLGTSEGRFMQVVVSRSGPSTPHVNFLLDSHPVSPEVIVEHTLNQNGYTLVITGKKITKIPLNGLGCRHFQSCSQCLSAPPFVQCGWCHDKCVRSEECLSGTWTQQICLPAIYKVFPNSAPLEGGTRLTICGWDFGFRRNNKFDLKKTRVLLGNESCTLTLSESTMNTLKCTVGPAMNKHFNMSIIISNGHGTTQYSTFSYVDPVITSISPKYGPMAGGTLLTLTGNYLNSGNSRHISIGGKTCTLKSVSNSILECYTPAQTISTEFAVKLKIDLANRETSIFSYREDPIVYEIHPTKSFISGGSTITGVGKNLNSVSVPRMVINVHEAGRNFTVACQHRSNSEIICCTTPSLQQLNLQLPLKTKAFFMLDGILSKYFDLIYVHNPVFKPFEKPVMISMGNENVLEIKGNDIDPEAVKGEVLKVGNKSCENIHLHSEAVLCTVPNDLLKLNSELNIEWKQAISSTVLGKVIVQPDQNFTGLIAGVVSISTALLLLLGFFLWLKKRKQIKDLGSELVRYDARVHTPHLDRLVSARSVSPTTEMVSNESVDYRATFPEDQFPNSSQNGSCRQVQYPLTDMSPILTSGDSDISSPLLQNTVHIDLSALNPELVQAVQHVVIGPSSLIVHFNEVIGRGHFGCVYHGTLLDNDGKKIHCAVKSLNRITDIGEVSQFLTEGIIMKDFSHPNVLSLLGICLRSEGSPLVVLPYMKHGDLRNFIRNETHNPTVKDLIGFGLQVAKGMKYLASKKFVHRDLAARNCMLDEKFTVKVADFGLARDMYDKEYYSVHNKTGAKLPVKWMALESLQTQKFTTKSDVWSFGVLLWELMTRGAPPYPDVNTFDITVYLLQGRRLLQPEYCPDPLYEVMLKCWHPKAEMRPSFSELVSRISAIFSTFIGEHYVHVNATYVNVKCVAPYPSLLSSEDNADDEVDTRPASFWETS

As to `CCOc1ccn(-c2ccc(F)cc2)c(=O)c1C(=O)Nc1ccc(Oc2ccnc3cc(OCC(C)(C)O)c4c(c23)OCCO4)c(F)c1` [Example 120, N-(3-fluoro-4-((5-(2-hydroxy-2-methylpropoxy)-2,3-dihydro-[1,4]dioxino[2,3-f]quinolin-10-yl)oxy)phenyl)-4-ethoxy-1-(4-fluorophenyl)-2-oxo-1,2-dihydropyridine-3-carboxamide], the 50% inhibitory concentration (IC50) was at most 0.05 µM at c-MET kinase and 0.05 to 0.5 µM on VEGFR-2 kinase. As to `CCOc1ccn(-c2ccc(F)cc2)c(=O)c1C(=O)Nc1ccc(Oc2ccnc3cc(OCC(C)(C)O)c4c(c23)OCCO4)cc1Cl` [Example 142, N-(2-chloro-4-((5-(2-hydroxy-2-methylpropoxy)-2,3-dihydro-[1,4]dioxino[2,3-f]quinolin-10-yl)oxy)phenyl)-1-(4-fluorophenyl)-4-ethoxy-2-oxo-1,2-dihydropyridine-3-carboxamide], the IC50 was at most 0.05 µM at c-MET kinase and 0.05 to 0.5 µM at VEGFR-2 kinase. The like results for `CCn1cc(C(=O)Nc2ccc(Oc3ccnc4cc(OC)c5c(c34)OCCO5)cc2)c(=O)n(-c2ccc(F)cc2)c1=O` [Example 146, N-(4-((5-methoxy-2,3-dihydro-[1,4]dioxino[2,3-f]quinolin-10-yl)oxy)phenyl)-3-(4-fluorophenyl)-1-ethyl-2,4-dioxo-1,2,3,4-tetrahydropyrimidine-5-carboxamide] were, in that order, at most 0.05 µM and over 5 µM. In the case of `CCOc1ccn(Cc2ccccc2)c(=O)c1C(=O)Nc1ccc(Oc2ccnc3cc(OC)c4c(c23)OCCO4)c(F)c1` [Example 117, N-(3-fluoro-4-((5-methoxy-2,3-dihydro-[1,4]dioxino[2,3-f]quinolin-10-yl)oxy)phenyl)-2-oxo-4-ethoxy-1-benzyl-1,2-dihydropyridin-3-carboxamide], the 50% inhibitory concentration (IC50) is at most 0.05 µM at c-MET kinase and 0.5 to 5 µM on VEGFR-2 kinase. Regarding `Cn1cc(C(=O)Nc2ccc(Oc3ccnc4cc(OCC(C)(C)O)c5c(c34)OCCO5)cc2Cl)c(=O)n(-c2ccc(F)cc2)c1=O` [Example 141, N-(2-chloro-4-((5-(2-hydroxy-2-methylpropoxy)-2,3-dihydro-[1,4]dioxino[2,3-f]quinolin-10-yl)oxy)phenyl)-3-(4-fluorophenyl)-1-methyl-2,4-dioxo-1,2,3,4-tetrahydropyrimidine-5-carboxamide], the IC50 on c-MET kinase was at most 0.05 µM.

In the case of `COc1cc2nccc(Oc3ccc(NC(=O)c4cn(C)c(=O)n(-c5ccc(F)cc5)c4=O)c(F)c3)c2c2c1OCCO2` [Example 153, N-(2-fluoro-4-((5-methoxy-2,3-dihydro-[1,4]dioxino[2,3-f]quinolin-10-yl)oxy)phenyl)-3-(4-fluorophenyl)-1-methyl-2,4-dioxo-1,2,3,4-tetrahydropyrimidine-5-carboxamide], the figures for the 50% inhibitory concentration (IC50) at c-MET kinase and at VEGFR-2 kinase were at most 0.05 µM and 0.5 to 5 µM, respectively.

With `CCOc1ccn(-c2ccc(F)cc2)c(=O)c1C(=O)Nc1ccc(Oc2ccnc3ccc4c(c23)OCCO4)cc1F` [Example 171, N-(4-((2,3-dihydro-[1,4]dioxino[2,3-f]quinolin-10-yl)oxy)-2-fluorophenyl)-1-(4-fluorophenyl)-4-ethoxy-2-oxo-1,2-dihydropyridine-3-carboxamide], the figures for the IC50 on c-MET kinase and on VEGFR-2 kinase were at most 0.05 µM and 0.5 to 5 µM, respectively. Taken in the same sequence, the figures for `COc1cc2nccc(Oc3ccc(NC(=O)c4cn(C)c(=O)n(-c5ccc(F)cc5)c4=O)cc3)c2c2c1OCCO2` [Example 145, N-(4-((5-methoxy-2,3-dihydro-[1,4]dioxino[2,3-f]quinolin-10-yl)oxy)phenyl)-3-(4-fluorophenyl)-1-methyl-2,4-dioxo-1,2,3,4-tetrahydropyrimidine-5-carboxamide] were at most 0.05 µM and 0.5 to 5 µM. Taken in the same sequence, the figures for `COc1ccn(-c2ccc(F)cc2)c(=O)c1C(=O)Nc1ccc(Oc2ccnc3ccc4c(c23)OCCO4)cc1F` [Example 172, N-(4-((2,3-dihydro-[1,4]dioxino[2,3-f]quinolin-10-yl)oxy)-2-fluorophenyl)-1-(4-fluorophenyl)-4-methoxy-2-oxo-1,2-dihydropyridine-3-carboxamide] were 0.05 to 0.5 µM and over 5 µM. The like results for `CC(C)n1cc(C(=O)Nc2ccc(Oc3ccnc4cc(OCCCN(C)C5CCC5)c5c(c34)OCCO5)c(F)c2)c(=O)n(-c2ccc(F)cc2)c1=O` [Example 96, N-(3-fluoro-4-((5-(3-((cyclobutyl)(methyl)amino)propoxy)-2,3-dihydro-[1,4]dioxino[2,3-f]quinolin-10-yl)oxy)phenyl)-3-(4-fluorophenyl)-1-isopropyl-2,4-dioxo-1,2,3,4-tetrahydropyrimidine-5-carboxamide] were, in that order, at most 0.05 µM and 0.5 to 5 µM. With `COc1cc2ncnc(Oc3ccc(NC(=O)c4cn(C)c(=O)n(-c5ccc(F)cc5)c4=O)cc3F)c2c2c1OCCO2` [Example 29, N-(3-fluoro-4-((5-methoxy-2,3-dihydro-[1,4]dioxino[2,3-f]quinazolin-10-yl)oxy)phenyl)-3-(4-fluorophenyl)-1-methyl-2,4-dioxo-1,2,3,4-tetrahydropyrimidine-5-carboxamide], the values for the IC50 at c-MET kinase and on VEGFR-2 kinase were at most 0.05 µM and 0.5 to 5 µM, respectively. Taken in the same sequence, the figures for `CCn1cc(C(=O)Nc2ccc(Oc3ccnc4cc(OC)c5c(c34)OCCO5)c(F)c2)c(=O)n(-c2ccc(F)cc2)c1=O` [Example 37, N-(3-fluoro-4-((5-methoxy-2,3-dihydro-[1,4]dioxino[2,3-f]quinolin-10-yl)oxy)phenyl)-3-(4-fluorophenyl)-1-ethyl-2,4-dioxo-1,2,3,4-tetrahydropyrimidine-5-carboxamide] were at most 0.05 µM and 0.05 to 0.5 µM. The like results for `COc1ccn(-c2ccc(F)cc2)c(=O)c1C(=O)Nc1ccc(Oc2ccnc3cc(OCCCC#N)c4c(c23)OCCO4)cc1Cl` [Example 132, N-(2-chloro-4-((5-(3-cyanopropoxy)-2,3-dihydro-[1,4]dioxino[2,3-f]quinolin-10-yl)oxy)phenyl)-1-(4-fluorophenyl)-4-methoxy-2-oxo-1,2-dihydropyridine-3-carboxamide] were, in that order, at most 0.05 µM and 0.5 to 5 µM. Regarding `COc1cc2nccc(Oc3ccc(NC(=O)c4cn(C)c(=O)n(-c5ccc(F)cc5)c4=O)c(Cl)c3)c2c2c1OCCO2` [Example 125, N-(2-chloro-4-((5-methoxy-2,3-dihydro-[1,4]dioxino[2,3-f]quinolin-10-yl)oxy)phenyl)-3-(4-fluorophenyl)-1-methyl-2,4-dioxo-1,2,3,4-tetrahydropyrimidine-5-carboxamide], the IC50 on c-MET kinase was 0.05 to 0.5 µM. In the case of `COc1cc2nccc(Oc3ccc(NC(=O)c4cn(CC(=O)O)c(=O)n(-c5ccc(F)cc5)c4=O)cc3F)c2c2c1OCCO2` [Example 104, 2-(5-((3-fluoro-4-((5-methoxy-2,3-dihydro-[1,4]dioxino[2,3-f]quinolin-10-yl)oxy)phenyl)carbamoyl)-3-(4-fluorophenyl)-2,4-dioxo-3,4-dihydropyrimidin-1(2H)-yl)acetic acid], the IC50 at c-MET kinase was at most 0.05 µM; at VEGFR-2 kinase it was over 5 µM. Taken in the same sequence, the figures for `CCn1cc(C(=O)Nc2ccc(Oc3ccnc4cc(OCCOC)c5c(c34)OCCO5)cc2)c(=O)n(-c2ccc(F)cc2)c1=O` [Example 148, N-(4-((5-(2-methoxyethoxy)-2,3-dihydro-[1,4]dioxino[2,3-f]quinolin-10-yl)oxy)phenyl)-3-(4-fluorophenyl)-1-ethyl-2,4-dioxo-1,2,3,4-tetrahydropyrimidine-5-carboxamide] were at most 0.05 µM and 0.5 to 5 µM. Taken in the same sequence, the figures for `Cn1cc(C(=O)Nc2ccc(Oc3ccnc4ccc5c(c34)OCCO5)cc2F)c(=O)n(-c2ccc(F)cc2)c1=O` [Example 162, N-(4-((2,3-dihydro-[1,4]dioxino[2,3-f]quinolin-10-yl)oxy)-2-fluorophenyl)-3-(4-fluorophenyl)-1-methyl-2,4-dioxo-1,2,3,4-tetrahydropyrimidine-5-carboxamide] were 0.5 to 5 µM and 0.5 to 5 µM. Taken in the same sequence, the figures for `O=C(Nc1ccc(Oc2ccnc3ccc4c(c23)OCCO4)cc1F)c1cccn(-c2ccc(F)cc2)c1=O` [Example 170, N-(4-((2,3-dihydro-[1,4]dioxino[2,3-f]quinolin-10-yl)oxy)-2-fluorophenyl)-1-(4-fluorophenyl)-2-oxo-1,2-dihydropyridine-3-carboxamide] were 0.05 to 0.5 µM and 0.5 to 5 µM. Take `CCn1cc(C(=O)Nc2ccc(Oc3ccnc4cc(OCCCN5CCOCC5)c5c(c34)OCCO5)c(F)c2)c(=O)n(-c2ccc(F)cc2)c1=O` [Example 38, N-(3-fluoro-4-((5-(3-morpholinopropoxy)-2,3-dihydro-[1,4]dioxino[2,3-f]quinolin-10-yl)oxy)phenyl)-3-(4-fluorophenyl)-1-ethyl-2,4-dioxo-1,2,3,4-tetrahydropyrimidine-5-carboxamide]: the IC50 on c-MET kinase was at most 0.05 µM; on VEGFR-2 kinase, 0.05 to 0.5 µM. The like results for `CCOc1ccn(-c2ccc(F)cc2)c(=O)c1C(=O)Nc1ccc(Oc2ccnc3cc(OCCCC#N)c4c(c23)OCCO4)cc1Cl` [Example 134, N-(2-chloro-4-((5-(3-cyanopropoxy)-2,3-dihydro-[1,4]dioxino[2,3-f]quinolin-10-yl)oxy)phenyl)-1-(4-fluorophenyl)-4-ethoxy-2-oxo-1,2-dihydropyridine-3-carboxamide] were, in that order, at most 0.05 µM and 0.05 to 0.5 µM. For the molecule `CC(C)n1cc(C(=O)Nc2ccc(Oc3ccnc4cc(OCCCN5CCOCC5)c5c(c34)OCCO5)c(F)c2)c(=O)n(-c2ccc(F)cc2)c1=O` [Example 16, N-(3-fluoro-4-((5-(3-morpholinopropoxy)-2,3-dihydro-[1,4]dioxino[2,3-f]quinolin-10-yl)oxy)phenyl)-3-(4-fluorophenyl)-1-isopropyl-2,4-dioxo-1,2,3,4-tetrahydropyrimidine-5-carboxamide], the half-inhibitory concentration (IC50) at c-MET kinase was at most 0.05 µM.
